Assay [1] addresses T1, ALK (Homo sapiens, UniProt Q9UM73).
T1 construct: host or cells: baculovirus expression system
Briefly: ALK Kinase Assay (ELISA/TRF, PLC-γ substrate). The format is biochemical. The note with it: ALK kinase inhibition, 1 μM ATP; read-out: ALK Potency. A digest of the protocol:
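Wells were coated with 10 μg/mL phospholipase C-γ substrate in TBS, and the reaction was started by adding 30 ng/ml ALK enzyme and run at 37° C for 15 minutes. Phosphorylated product was detected with Eu-N1-labeled PT66 antibody, and IC50 values came from sigmoidal variable-slope fits of percent inhibition against log concentration.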

In assay [2] the target is T2, JAK2 (Homo sapiens, UniProt O60674).
T2 construct: host or cells: baculovirus expression system
T2 sequence (O60674 whole entry): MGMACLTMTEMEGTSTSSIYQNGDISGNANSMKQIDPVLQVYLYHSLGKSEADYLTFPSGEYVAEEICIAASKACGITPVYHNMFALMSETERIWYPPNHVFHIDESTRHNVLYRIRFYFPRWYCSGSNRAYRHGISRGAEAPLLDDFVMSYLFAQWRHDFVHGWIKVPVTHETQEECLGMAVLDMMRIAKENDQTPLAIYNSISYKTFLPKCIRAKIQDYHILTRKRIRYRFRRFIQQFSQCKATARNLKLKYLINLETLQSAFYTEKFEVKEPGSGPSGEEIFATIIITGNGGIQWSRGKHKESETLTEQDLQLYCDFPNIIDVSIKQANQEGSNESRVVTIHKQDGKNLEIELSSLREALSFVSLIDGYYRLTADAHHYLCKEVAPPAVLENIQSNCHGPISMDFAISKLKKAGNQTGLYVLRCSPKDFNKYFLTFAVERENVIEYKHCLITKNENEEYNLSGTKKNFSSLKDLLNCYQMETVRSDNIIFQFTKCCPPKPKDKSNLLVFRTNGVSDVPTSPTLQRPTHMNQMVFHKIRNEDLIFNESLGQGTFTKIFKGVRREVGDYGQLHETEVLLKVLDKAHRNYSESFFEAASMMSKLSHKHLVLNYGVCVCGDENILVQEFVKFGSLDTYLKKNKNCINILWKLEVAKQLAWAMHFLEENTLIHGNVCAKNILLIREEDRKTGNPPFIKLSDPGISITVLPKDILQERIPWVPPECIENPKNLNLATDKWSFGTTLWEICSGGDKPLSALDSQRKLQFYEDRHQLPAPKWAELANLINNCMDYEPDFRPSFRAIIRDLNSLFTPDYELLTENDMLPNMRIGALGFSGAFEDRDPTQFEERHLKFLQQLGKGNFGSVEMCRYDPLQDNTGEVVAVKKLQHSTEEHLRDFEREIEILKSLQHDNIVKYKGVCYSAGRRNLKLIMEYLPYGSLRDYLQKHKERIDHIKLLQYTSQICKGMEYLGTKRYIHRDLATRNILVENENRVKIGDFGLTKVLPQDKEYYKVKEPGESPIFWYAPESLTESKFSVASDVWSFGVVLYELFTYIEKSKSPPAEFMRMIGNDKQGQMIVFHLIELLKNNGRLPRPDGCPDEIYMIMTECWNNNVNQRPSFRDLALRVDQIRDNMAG
Briefly: Recombinant Human JAK2 Kinase Assay (TRF). To be noted: JAK2 kinase inhibition, 0.2 μM ATP; read-out: JAK2 Potency. The format is biochemical. Put shortly:
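Kinase activity of baculovirus-expressed JAK2 is followed on a surface-immobilised biotinylated peptide, with the reaction run for 20 min at room temperature in buffer containing 0.2 μM ATP and manganese. Phosphorylation is read with Eu-N1 PY100 antibody.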

T1 sequence (Q9UM73 19-1620): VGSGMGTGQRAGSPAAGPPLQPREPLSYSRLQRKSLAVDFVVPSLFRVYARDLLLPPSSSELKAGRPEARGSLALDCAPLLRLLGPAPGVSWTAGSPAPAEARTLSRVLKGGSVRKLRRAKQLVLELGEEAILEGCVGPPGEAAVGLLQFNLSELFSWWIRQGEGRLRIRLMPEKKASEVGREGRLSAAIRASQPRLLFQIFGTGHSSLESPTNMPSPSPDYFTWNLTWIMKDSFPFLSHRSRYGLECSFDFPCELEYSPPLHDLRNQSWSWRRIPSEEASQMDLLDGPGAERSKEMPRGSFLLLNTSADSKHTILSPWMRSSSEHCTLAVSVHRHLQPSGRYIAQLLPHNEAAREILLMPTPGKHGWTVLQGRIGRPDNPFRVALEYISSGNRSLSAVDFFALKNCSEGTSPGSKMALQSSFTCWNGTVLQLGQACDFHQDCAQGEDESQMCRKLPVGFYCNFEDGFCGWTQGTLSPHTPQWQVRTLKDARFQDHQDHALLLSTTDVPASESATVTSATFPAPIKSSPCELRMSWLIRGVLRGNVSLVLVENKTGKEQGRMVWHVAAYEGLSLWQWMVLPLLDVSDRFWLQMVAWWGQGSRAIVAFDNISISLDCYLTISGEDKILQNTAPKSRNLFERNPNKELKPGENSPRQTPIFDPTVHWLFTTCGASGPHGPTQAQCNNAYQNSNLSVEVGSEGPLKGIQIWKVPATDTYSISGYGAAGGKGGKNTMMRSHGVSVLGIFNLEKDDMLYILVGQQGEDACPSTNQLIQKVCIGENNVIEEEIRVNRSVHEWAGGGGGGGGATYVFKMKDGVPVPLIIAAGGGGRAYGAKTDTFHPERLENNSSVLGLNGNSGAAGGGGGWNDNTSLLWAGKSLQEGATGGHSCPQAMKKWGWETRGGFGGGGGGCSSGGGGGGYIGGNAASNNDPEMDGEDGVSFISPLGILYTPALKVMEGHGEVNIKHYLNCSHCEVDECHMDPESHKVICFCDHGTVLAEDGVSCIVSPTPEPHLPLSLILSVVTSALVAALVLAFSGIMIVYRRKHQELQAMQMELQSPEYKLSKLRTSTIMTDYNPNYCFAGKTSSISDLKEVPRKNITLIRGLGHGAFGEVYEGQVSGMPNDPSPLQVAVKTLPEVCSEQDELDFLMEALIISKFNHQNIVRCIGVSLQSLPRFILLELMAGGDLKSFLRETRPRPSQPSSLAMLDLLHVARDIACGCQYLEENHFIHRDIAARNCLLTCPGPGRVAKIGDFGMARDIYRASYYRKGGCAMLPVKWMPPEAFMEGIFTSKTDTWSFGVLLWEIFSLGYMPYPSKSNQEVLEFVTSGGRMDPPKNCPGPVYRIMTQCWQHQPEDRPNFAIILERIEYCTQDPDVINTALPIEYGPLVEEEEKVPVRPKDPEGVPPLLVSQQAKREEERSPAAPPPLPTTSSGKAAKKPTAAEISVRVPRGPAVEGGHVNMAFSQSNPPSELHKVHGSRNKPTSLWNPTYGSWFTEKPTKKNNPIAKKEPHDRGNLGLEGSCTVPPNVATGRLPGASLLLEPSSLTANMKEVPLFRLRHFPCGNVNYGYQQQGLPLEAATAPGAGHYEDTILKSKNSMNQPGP

Take `CS(=O)(=O)Nc1cccc(-c2ccc3cnc(Nc4ccn(CCN5CCOCC5)n4)nn23)c1` [Example 1185, N-(3-{2-[1-(2-Morpholin-4-yl-ethyl)-1H-pyrazol-3-ylamino]-pyrrolo[2,1-f][1,2,4]triazin-7-yl}-phenyl)-methanesulfonamide]: the IC50 was 1000 to 10000 nM in assay [1] and less than 100 nM in assay [2].
For `CN(c1ccccc1-c1ccc2cnc(Nc3ccn(CCN4CCOCC4)n3)nn12)S(C)(=O)=O` [Example 1186, N-Methyl-N-(2-{2-[1-(2-morpholin-4-yl-ethyl)-1H-pyrazol-3-ylamino]-pyrrolo[2,1-f][1,2,4]triazin-7-yl}-phenyl)-methanesulfonamide], in that order: 100 to 1000 nM and less than 100 nM.
For `Cn1cc(-c2ccc3cnc(Nc4ccc(N5CCC(N6CCOCC6)CC5)cc4)nn23)cn1` [Example 1187, [7-(1-Methyl-1H-pyrazol-4-yl)-pyrrolo[2,1-f][1,2,4]triazin-2-yl]-[4-(4-morpholin-4-yl-piperidin-1-yl)-phenyl]-amine], the IC50 is 100 to 1000 nM in assay [1] and less than 100 nM in assay [2].
As to `CN1CCN(C(=O)C2CCN(c3ccc(Nc4ncc5ccc(-c6cnn(C)c6)n5n4)cc3)CC2)CC1` [Example 1188, (4-Methyl-piperazin-1-yl)-(1-{4-[7-(1-methyl-1H-pyrazol-4-yl)-pyrrolo[2,1-f][1,2,4]triazin-2-ylamino]-phenyl}-piperidin-4-yl)-methanone], the IC50 in assay [1] was 100 to 1000 nM; in assay [2], less than 100 nM.
As to `CCN1CCOC(c2ccc(Nc3ncc4ccc(-c5cnn(C)c5)n4n3)cc2)C1` (stereo not shown) [Example 1189, [4-(4-Ethyl-morpholin-2-yl)-phenyl]-[7-(1-methyl-1H-pyrazol-4-yl)-pyrrolo[2,1-f][1,2,4]triazin-2-yl]-amine], the IC50 in assay [1] was 100 to 1000 nM; in assay [2], less than 100 nM.
For the compound `COc1ccccc1-c1ccc2cnc(Nc3cnn(CCN4CCOCC4)c3)nn12` [Example 1190, [7-(2-Methoxy-phenyl)-pyrrolo[2,1-f][1,2,4]triazin-2-yl]-[1-(2-morpholin-4-yl-ethyl)-1H-pyrazol-4-yl]-amine], the IC50 in assay [1] is 1000 to 10000 nM; in assay [2] it was less than 100 nM.
As to `c1cncc(-c2ccc3cnc(Nc4cnn(CCN5CCOCC5)c4)nn23)c1` [Example 1191, [1-(2-Morpholin-4-yl-ethyl)-1H-pyrazol-4-yl]-(7-pyridin-3-yl-pyrrolo[2,1-f][1,2,4]triazin-2-yl)-amine], the IC50 is greater than 10000 nM in assay [1] and less than 100 nM in assay [2].
For `COc1ccc(-c2ccc3cnc(Nc4cnn(CCN5CCOCC5)c4)nn23)cn1` [Example 1192, [7-(6-Methoxy-pyridin-3-yl)-pyrrolo[2,1-f][1,2,4]triazin-2-yl]-[1-(2-morpholin-4-yl-ethyl)-1H-pyrazol-4-yl]-amine], in that order: 1000 to 10000 nM and less than 100 nM.
On to `CN(c1ccccc1-c1ccc2cnc(Nc3cnn(CCN4CCOCC4)c3)nn12)S(C)(=O)=O` [Example 1193, N-Methyl-N-(2-{2-[1-(2-morpholin-4-yl-ethyl)-1H-pyrazol-4-ylamino]-pyrrolo[2,1-f][1,2,4]triazin-7-yl}-phenyl)-methanesulfonamide], for which the IC50 in assay [1] was 1000 to 10000 nM; in assay [2], less than 100 nM.
For the compound `CN1CCN(c2ccc(Nc3ncc4ccc(-c5cccc(NS(C)(=O)=O)c5)n4n3)nc2)CC1` [Example 1194, N-(3-{2-[5-(4-Methyl-piperazin-1-yl)-pyridin-2-ylamino]-pyrrolo[2,1-f][1,2,4]triazin-7-yl}-phenyl)-methanesulfonamide], the IC50 in assay [1] was 100 to 1000 nM; in assay [2], less than 100 nM.
For `CS(=O)(=O)Nc1cccc(-c2ccc3cnc(Nc4cnn(CCN5CCOCC5)c4)nn23)c1` [Example 1195, N-(3-{2-[1-(2-Morpholin-4-yl-ethyl)-1H-pyrazol-4-ylamino]-pyrrolo[2,1-f][1,2,4]triazin-7-yl}-phenyl)-methanesulfonamide], in that order: 1000 to 10000 nM and less than 100 nM.
Regarding `CN1CCN(c2ccc(Nc3ncc4ccc(-c5ccc(C=O)o5)n4n3)cc2)CC1` [Example 1196, 5-{2-[4-(4-Methyl-piperazin-1-yl)-phenylamino]-pyrrolo[2,1-f][1,2,4]triazin-7-yl}-furan-2-carbaldehyde], the values for the IC50 in assay [1] and in assay [2] were 100 to 1000 nM and less than 100 nM, respectively.
Turning to `CN1CCN(c2ccc(Nc3ncc4ccc(-c5ccccc5N(C)S(C)(=O)=O)n4n3)nc2)CC1` [Example 1197, N-Methyl-N-(2-{2-[5-(4-methyl-piperazin-1-yl)-pyridin-2-ylamino]-pyrrolo[2,1-f][1,2,4]triazin-7-yl}-phenyl)-methanesulfonamide], the IC50 is 100 to 1000 nM in assay [1] and less than 100 nM in assay [2].
For `CN1CCN(c2ccc(Nc3ncc4ccc(-c5cncc(CNCCS(C)(=O)=O)c5)n4n3)cc2)CC1` [Example 1198, (7-{5-[(2-Methanesulfonyl-ethylamino)-methyl]-pyridin-3-yl}-pyrrolo[2,1-f][1,2,4]triazin-2-yl)-[4-(4-methyl-piperazin-1-yl)-phenyl]-amine], in that order: 1000 to 10000 nM and less than 100 nM.
As for `CN1CCN(c2ccc(Nc3ncc4ccc(-c5ccccc5CNCCS(C)(=O)=O)n4n3)cc2)CC1` [Example 1199, (7-{2-[(2-M ethanesulfonyl-ethylamino)-methyl]-phenyl}-pyrrolo[2,1-f][1,2,4]triazin-2-yl)-[4-(4-methyl-piperazin-1-yl)-phenyl]-amine], the IC50 is 1000 to 10000 nM in assay [1] and less than 100 nM in assay [2].
Turning to `CN1CCN(c2ccc(Nc3ncc4ccc(-c5ccc(CNCCS(C)(=O)=O)o5)n4n3)cc2)CC1` [Example 1200, (7-{5-[(2-Methanesulfonyl-ethylamino)-methyl]-furan-2-yl}-pyrrolo[2,1-f][1,2,4]triazin-2-yl)-[4-(4-methyl-piperazin-1-yl)-phenyl]-amine], the results for the IC50 in assay [1] and in assay [2] were 100 to 1000 nM and less than 100 nM, respectively.
As to `Cn1cc(-c2ccc3cnc(Nc4ccc5c(c4)CCC(N4CCOCC4)CC5)nn23)cn1` (stereo not shown) [Example 1201, [7-(1-Methyl-1H-pyrazol-4-yl)-pyrrolo[2,1-f][1,2,4]triazin-2-yl]-(7-morpholin-4-yl-6,7,8,9-tetrahydro-5H-benzocyclohepten-2-yl)-amine], the IC50 in assay [1] is 100 to 1000 nM; in assay [2], less than 100 nM.
Take `COc1ccccc1-c1ccc2cnc(Nc3ccc(N4CCOCC4)cn3)nn12` [Example 1202, [7-(2-Methoxy-phenyl)-pyrrolo[2,1-f][1,2,4]triazin-2-yl]-(5-morpholin-4-yl-pyridin-2-yl)-amine]: the IC50 in assay [1] was 1000 to 10000 nM; in assay [2], less than 100 nM.
As for `CN1CCN(c2ccc(Nc3ncc4ccc(-c5ccc(C=O)cc5)n4n3)cc2)CC1` [Example 1203, 4-{2-[4-(4-Methyl-piperazin-1-yl)-phenylamino]-pyrrolo[2,1-f][1,2,4]triazin-7-yl}-benzaldehyde], the results for the IC50 in assay [1] and in assay [2] were 100 to 1000 nM and less than 100 nM, respectively.
As for `CCN(CC)C1CCN(c2ccc(Nc3ncc4ccc(-c5ccccc5N(C)S(C)(=O)=O)n4n3)cc2)CC1` [Example 1204, N-(2-{2-[4-(4-Diethylamino-piperidin-1-yl)-phenylamino]-pyrrolo[2,1-f][1,2,4]triazin-7-yl}-phenyl)-N-methyl-methanesulfonamide], the IC50 in assay [1] and in assay [2] was less than 100 nM each time.
In the case of `CCN(CC)C1CCN(c2ccc(Nc3ncc4ccc(-c5cccc(NS(=O)(=O)C(C)(C)C)c5)n4n3)cc2)CC1` [Example 1205, 2-Methyl-propane-2-sulfonic acid (3-{2-[4-(4-diethylamino-piperidin-1-yl)-phenylamino]-pyrrolo[2,1-f][1,2,4]triazin-7-yl}-phenyl)-amide], the IC50 in assay [1] was 100 to 1000 nM; in assay [2] it was less than 100 nM.
Take `CCN(CC)C1CCN(c2ccc(Nc3ncc4ccc(-c5ccc(OC)nc5)n4n3)cc2)CC1` [Example 1206, [4-(4-Diethylamino-piperidin-1-yl)-phenyl]-[7-(6-methoxy-pyridin-3-yl)-pyrrolo[2,1-f][1,2,4]triazin-2-yl]-amine]: the IC50 in assay [1] was 100 to 1000 nM; in assay [2], less than 100 nM.
For `CCN(CC)C1CCN(c2ccc(Nc3ncc4ccc(-c5cnn(C)c5)n4n3)cc2)CC1` [Example 1207, [4-(4-Diethylamino-piperidin-1-yl)-phenyl]-[7-(1-methyl-1H-pyrazol-4-yl)-pyrrolo[2,1-f][1,2,4]triazin-2-yl]-amine], in that order: 100 to 1000 nM and less than 100 nM.
`CN1CCN(c2ccc(Nc3ncc4ccc(-c5ccc(CNCCS(C)(=O)=O)cc5)n4n3)cc2)CC1` [Example 1208, (7-{4-[(2-Methanesulfonyl-ethylamino)-methyl]-phenyl}-pyrrolo[2,1-f][1,2,4]triazin-2-yl)-[4-(4-methyl-piperazin-1-yl)-phenyl]-amine]: the IC50 in assay [1] was 100 to 1000 nM; in assay [2], less than 100 nM.
Take `CS(=O)(=O)CCNCc1cccc(-c2ccc3cnc(Nc4ccc(N5CCOCC5)cc4)nn23)c1` [Example 1209, (7-{3-[(2-Methanesulfonyl-ethylamino)-methyl]-phenyl}-pyrrolo[2,1-f][1,2,4]triazin-2-yl)-(4-morpholin-4-yl-phenyl)-amine]: the IC50 in assay [1] is 100 to 1000 nM; in assay [2], less than 100 nM.
Take `COc1ccncc1-c1ccc2cnc(Nc3ccc(N4CCN(C)CC4)cc3)nn12` [Example 1210, [7-(4-Methoxy-pyridin-3-yl)-pyrrolo[2,1-f][1,2,4]triazin-2-yl]-[4-(4-methyl-piperazin-1-yl)-phenyl]-amine]: the IC50 in assay [1] was 100 to 1000 nM; in assay [2] it was less than 100 nM.

The values are drawn from patent US8471005B2 (Cephalon, Inc., priority 2008, dated 2013).
